Results published in patent US10526325B2, “Bicyclic heterocyclic derivatives” (Merck Patent GmbH, priority 2015, dated 2020).

Tests used:
PDHK2 = PDHK2 (Homo sapiens (Human), UniProt Q15119); test: Biochemical activity testing of PDHK2: PDC inactivation assay; details: human rec PDHK2, porcine heart PDC, 5 μM ATP, read-out: IC50 PDHK2 (enzyme assay)
Description: Biochemical Activity Testing of PDHK2: PDC Inactivation Assay
The biochemical activity assay for PDHK2 is based on the inactivation of PDC through phosphorylation by PDHK2. The assay is run in two steps: the enzymatic PDHK2 reaction in which isolated PDC is phosphorylated by PDHK2 with ATP as co-substrate and the PDC activity assay in which pyruvate and NAD are converted to acetyl-CoA and NADH. The PDC activity correlates to the increase in NADH and thereby is detectable directly via the increasing fluorescence signal (Exc 340 nm, Em 450 nm). Inhibition of PDHK2 results in a lower phosphorylation status and thereby a less decrease in activity of PDC and a stronger increase in NADH fluorescence signal.
The PDC inactivation assay is performed in Greiner 384-well microtiter plates and is used for high throughput screen. 4 μl of PDHK2 (human, rec, Carna Bioscience, 10 ng/μl-137 nM final concentration) and PDC (isolated from porcine heart, Sigma-Aldrich, 20 mU/ml final concentration) are incubated in the absence or presence of the test compound (10 dilution concentrations) for 30 min at room temperature in kinase buffer (15 mM potassium phosphate buffer, pH 7.0, 60 mM KCl, 1.5 mM DTT, 2.5 mM MgCl2, 0.0125% (w/v) BSA, 0.125% Pluronic F-68). The kinase reaction is started by the addition of 4 μl ATP substrate solution (fc 5 μM in kinase buffer). After 30 min incubation at 37° C. 40 μl of PDC reaction solution (100 mM Tris/HCl, pH 7.8, 0.5 mM EDTA, 1 mM MgCl2, 50 mM NaF, 0.25 mM Coenzyme A, 5 mM pyruvate, 1 mM NAD, 5 mM DTT, 1 mM thiamine pyrophosphate) is added. The first fluorescence measurement is performed on a Perkin Elmer Envision (Exc 340 nm, Em 450 nm). The reaction is incubated for 45 min at room temperature. Afterwards a second fluorescence measurement is performed and the PDC activity is calculated by the difference between both measurements. As full value for the PDHK2 assay the inhibitor-free PDHK2 reaction is used. The pharmacological zero value used is DCA (Sigma-Aldrich) in a final concentration of 3 mM. The inhibitory values […] were determined using either the program Symyx Assay Explorer® or Condosseo® from GeneData.

human PDHK2 (12-407) = human PDHK2 (12-407) (Homo sapiens (Human), UniProt Q15119); test: Isothermal titration calorimetry (ITC) binding; details: ITC at 30° C., pH 7.5
Method: Isothermal Titration Calorimetry
ITC measurements were performed with a VP-ITC micro calorimeter (Microcal, LLC/GE Healthcare Bio-Sciences Aft Uppsala, Sweden). In general titrations were performed by titrating the protein (50 μM) to the test compound (5 μM) in 12 μl injections. All binding experiments were carried out at 30° C. In general the test compounds were diluted form DMSO stock solutions into the measurement buffer with a maximum final concentration of 1% DMSO. The measurement buffer was 20 mM HEPES, 135 mM KCl, 1 mM TCEP, 2 mM MgCl2, 15 mM NaH2PO4, pH 7.5. The human PDHK2 (12-407) was produced in E. coli as his-tagged protein and purified by affinity chromatography. The tag was removed by side specific proteolysis. Before titration the protein buffer was changed to the measurement buffer containing the same DMSO concentration as the test compound dilution. ITC data analysis was performed using Origin 7 calorimetry software from the same supplier. For most measurements a binding model of one binding site was assumed. According to the applied mathematical model it is possible to calculate the binding constant (KA), the observed binding enthalpy (ΔH^obs) as well as the stoichiometry (N) of the formed complex.
Preceding analysis the raw data was corrected for the heats of dilution by extrapolating from the saturation value from the end of titration. In order to allow for direct comparison between the respective experimental series and protein preparations the protein concentration was corrected by referencing titrations to a well behaved standard inhibitor. The apparent stoichiometry values defined the fraction of binding competent protein and compensated for relative errors in protein concentration measurements. This corrected protein concentration was used to set up ITC experiment series with test compounds. Any deviations from ideal 1:1 stoichiometry observed here were attributed to errors in compound concentration. This nominal compound concentration was corrected as well to achieve 1:1 stoichiometry in the fit.

[1] = test system: PDH-E1alpha (pSer300) in HEK293T cells; test: Cellular immunofluorescence assay, PDH-E1alpha (pSer300) in HEK293T cells; format: cell-based, human; details: Homo sapiens, HEK-293T, 5 hours incubation, anti-PDH-E1alpha (pSer300) immunofluorescence, read-out: IC50 (cell data)
Method: Cellular Assay for Determination of Compound Activities
Compound activities were determined in a cellular immunofluorescence assay. Human HEK293T cells were seeded into black 384-well plates with clear bottom and grown overnight.
Next day, test compounds were added to the wells and the plates incubated for 5 hours. Following this, cells were fixed with formaldehyde, permeabilised and blocked. The primary antibody, Anti-PDH-E1alpha (pSer300), AP1064 (Merck Millipore) was added and incubated overnight in the plate wells. Next, cells were washed and the secondary antibody, Alexa Fluor 488, goat anti-rabbit ab (A-11008, Invitrogen) was added together with Hoechst 33258 (H3569, Invitrogen) and incubated for 1 hour in the plate wells. Finally, cells were washed and the plates were measured on the laser scanning cytometer acumen hci (TTpLabtech).
The raw data were normalized against a pharmacological inhibitor control and dose response curves were generated by plotting the percent effect values using the software package Genedata screener (Genedata).

Structure (SMILES) | IC50 (PDHK2) | Kd (human PDHK2 (12-407)) | IC50 [1]
C[C@@](O)(C(=O)N1CCc2nn(-c3ccc(Cl)cc3)cc2C1)C(F)(F)F [Compound A2, (2R)-1-[2-(4-chlorophenyl)-6,7-dihydro-4H-pyrazolo[4,3-c]pyridin-5-yl]-3,3,3-trifluoro-2-hydroxy-2-methyl-propan-1-one] | 3 to 50 µM | 0.3 to 3 µM | 
C[C@H]1CN(C(=O)[C@@](C)(O)C(F)(F)F)Cc2cnn(-c3ccc(F)cc3)c21 [Compound A15, (R)-3,3,3-Trifluoro-1-[(S)-1-(4-fluoro-phenyl)-7-methyl-1,4,6,7-tetrahydro-pyrazolo[4,3-c]pyridin-5-yl]-2-hydroxy-2-methyl-propan-1-one] | 0.3 to 3 µM |  | 0.3 to 3 µM
C[C@H]1CN(C(=O)[C@@](C)(O)C(F)(F)F)Cc2cnn(-c3ccccc3)c21 [Compound A19, (R)-3,3,3-Trifluoro-2-hydroxy-2-methyl-1-((S)-7-methyl-1-phenyl-1,4,6,7-tetrahydro-pyrazolo[4,3-c]pyridin-5-yl)-propan-1-one] | 0.3 to 3 µM |  | 0.3 to 3 µM
C[C@H]1CN(C(=O)[C@@](C)(O)C(F)(F)F)Cc2cnn(-c3ccc(F)cc3F)c21 [Compound A21, (R)-1-[(S)-1-(2,4-Difluoro-phenyl)-7-methyl-1,4,6,7-tetrahydro-pyrazolo[4,3-c]pyridin-5-yl]-3,3,3-trifluoro-2-hydroxy-2-methyl-propan-1-one] | 0.3 to 3 µM |  | 
C[C@H]1CN(C(=O)[C@@](C)(O)C(F)(F)F)Cc2cnn(C(C)(C)C)c21 [Compound A23, (R)-1-((S)-1-tert-Butyl-7-methyl-1,4,6,7-tetrahydro-pyrazolo[4,3-c]pyridin-5-yl)-3,3,3-trifluoro-2-hydroxy-2-methyl-propan-1-one] | 3 to 50 µM |  | 
C[C@H]1CN(C(=O)[C@@](C)(O)C(F)(F)F)Cc2cnn(-c3ccccc3F)c21 [Compound A25, (R)-3,3,3-Trifluoro-1-[(S)-1-(2-fluoro-phenyl)-7-methyl-1,4,6,7-tetrahydro-pyrazolo[4,3-c]pyridin-5-yl]-2-hydroxy-2-methyl-propan-1-one] | 0.3 to 3 µM |  | 
C[C@@H]1CN(C(=O)[C@@](C)(O)C(F)(F)F)Cc2cnn(-c3ccccc3C#N)c21 [Compound A26, 2-[(R)-7-Methyl-5-((R)-3,3,3-trifluoro-2-hydroxy-2-methyl-propionyl)-4,5,6,7-tetrahydro-pyrazolo[4,3-c]pyridin-1-yl]-benzonitrile] | 3 to 50 µM |  | 
C[C@H]1CN(C(=O)[C@@](C)(O)C(F)(F)F)Cc2cnn(-c3ccccc3C#N)c21 [Compound A27, 2-[(S)-7-Methyl-5-((R)-3,3,3-trifluoro-2-hydroxy-2-methyl-propionyl)-4,5,6,7-tetrahydro-pyrazolo[4,3-c]pyridin-1-yl]-benzonitrile] | 0.3 to 3 µM |  | 
C[C@H]1CN(C(=O)[C@@](C)(O)C(F)(F)F)Cc2cn[nH]c21 [Compound A29, (R)-3,3,3-Trifluoro-2-hydroxy-2-methyl-1-((S)-7-methyl-1,4,6,7-tetrahydro-pyrazolo[4,3-c]pyridin-5-yl)-propan-1-one] | 0.3 to 3 µM | 0.3 to 3 µM | 
C[C@H]1CN(C(=O)[C@@](C)(O)C(F)(F)F)Cc2cnn(-c3ncccc3F)c21 [Compound A33, (R)-3,3,3-Trifluoro-1-[(S)-1-(3-fluoro-pyridin-2-yl)-7-methyl-1,4,6,7-tetrahydro-pyrazolo[4,3-c]pyridin-5-yl]-2-hydroxy-2-methyl-propan-1-one] | 3 to 50 µM |  | 
C[C@H]1CN(C(=O)[C@@](C)(O)C(F)(F)F)Cc2cnn(-c3ncc(F)cc3F)c21 [Compound A35, (R)-1-[(S)-1-(3,5-Difluoro-pyridin-2-yl)-7-methyl-1,4,6,7-tetrahydro-pyrazolo[4,3-c]pyridin-5-yl]-3,3,3-trifluoro-2-hydroxy-2-methyl-propan-1-one] | 0.3 to 3 µM |  | 
COc1ncc(F)c(-n2ncc3c2[C@H](C)CN(C(=O)[C@@](C)(O)C(F)(F)F)C3)n1 [Compound A36, (R)-3,3,3-Trifluoro-1-[(R)-1-(5-fluoro-2-methoxy-pyrimidin-4-yl)-7-methyl-1,4,6,7-tetrahydro-pyrazolo[4,3-c]pyridin-5-yl]-2-hydroxy-2-methyl-propan-1-one] | 0.3 to 3 µM |  | 
C[C@H]1CN(C(=O)[C@@](C)(O)C(F)(F)F)Cc2cnn(C3CCC(O)CC3)c21 (stereo partly drawn) [Compound A39, (R)-3,3,3-Trifluoro-2-hydroxy-1-[(S)-1-(4-hydroxy-cyclohexyl)-7-methyl-1,4,6,7-tetrahydro-pyrazolo[4,3-c]pyridin-5-yl]-2-methyl-propan-1-one] | 0.3 to 3 µM |  | 
C[C@H]1CN(C(=O)[C@@](C)(O)C(F)(F)F)Cc2cnn(-c3ccc(F)cn3)c21 [Compound A41, (R)-3,3,3-Trifluoro-1-[(S)-1-(5-fluoro-pyridin-2-yl)-7-methyl-1,4,6,7-tetrahydro-pyrazolo[4,3-c]pyridin-5-yl]-2-hydroxy-2-methyl-propan-1-one] | 3 to 50 µM |  | 
C[C@@H]1CN(C(=O)C(C)(C)O)Cc2cnn(-c3ccc(F)cc3)c21 [Compound A42, 1-[(R)-1-(4-Fluoro-phenyl)-7-methyl-1,4,6,7-tetrahydro-pyrazolo[4,3-c]pyridin-5-yl]-2-hydroxy-2-methyl-propan-1-one] | 0.3 to 3 µM | < 0.3 µM | 
C[C@@](O)(C(=O)N1CCn2c(nnc2-c2ccccc2)C1)C(F)(F)F [Compound A48, (R)-3,3,3-Trifluoro-2-hydroxy-2-methyl-1-(3-phenyl-5,6-dihydro-8H-[1,2,4]triazolo[4,3-a]pyrazin-7-yl)-propan-1-one] | 0.3 to 3 µM | < 0.3 µM | 
C[C@H]1CN(C(=O)[C@@](C)(O)C(F)(F)F)Cc2cnc(-c3ccc(F)cc3)n21 [Compound A53, (R)-3,3,3-Trifluoro-1-[(S)-3-(4-fluoro-phenyl)-5-methyl-5,6-dihydro-8H-imidazo[1,5-a]pyrazin-7-yl]-2-hydroxy-2-methyl-propan-1-one] | 3 to 50 µM |  | 
C[C@H]1CN(C(=O)[C@@](C)(O)C(F)(F)F)Cc2cnc(-c3ccc(F)cc3F)n21 [Compound A55, (R)-1-[(S)-3-(2,4-Difluoro-phenyl)-5-methyl-5,6-dihydro-8H-imidazo[1,5-a]pyrazin-7-yl]-3,3,3-trifluoro-2-hydroxy-2-methyl-propan-1-one] | 0.3 to 3 µM |  | 
C[C@H]1CN(C(=O)[C@@](C)(O)C(F)(F)F)Cc2cnc(-c3ncc(F)cc3F)n21 [Compound A56, (R)-1-[(S)-3-(3,5-Difluoro-pyridin-2-yl)-5-methyl-5,6-dihydro-8H-imidazo[1,5-a]pyrazin-7-yl]-3,3,3-trifluoro-2-hydroxy-2-methyl-propan-1-one] | 3 to 50 µM |  | 
